Reference: ChEMBL document CHEMBL1201862, “PubChem BioAssay data set” (2004)
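1) Cells in 96-well plates. 2) Compound, 48 h, 5 concentrations. 3) Linear interpolation between surrounding doses. 4) Unreached endpoint = highest concentration. GI50 marks 50% less growth.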 Activity calls are given as the source filed them. No stated cut-off is given here; in the data, active = GI50 up to about 1.1 µM and inactive = higher.

Key:
Experiment in all cases: NCI anticancer screen, dose series, 48 h
ACHN = system: ACHN
CCRF-CEM = system: CCRF-CEM
COLO 205 = system: COLO 205
DLD-1 = system: DLD-1
DMS-114 = system: DMS-114
DMS-273 = system: DMS-273
HCT-116 = system: HCT-116
HCT-15 = system: HCT-15
HL-60 = system: HL-60
HOP-18 = system: HOP-18
HOP-92 = system: HOP-92
HT-29 = system: HT-29
LOX IMVI = system: LOX IMVI
OVCAR-5 = system: OVCAR-5
RPMI-8226 = system: RPMI-8226
RXF 393 = system: RXF 393
SK-MEL-28 = system: SK-MEL-28
SK-MEL-2 = system: SK-MEL-2
SK-OV-3 = system: SK-OV-3
SR = system: SR
SW-620 = system: SW-620
TK-10 = system: TK-10
786-0 = system: 786-0
A498 = system: A498
A549 = system: A549
CAKI-1 = system: CAKI-1
EKVX = system: EKVX
HCC 2998 = system: HCC 2998
HOP-62 = system: HOP-62
IGROV-1 = system: IGROV-1
K562 = system: K562
KM-20L2 = system: KM-20L2
KM12 = system: KM12
LXFL 529 = system: LXFL 529
M14 = system: M14
M19-MEL = system: M19-MEL
MOLT-4 = system: MOLT-4
Malme-3M = system: Malme-3M
NCI-H226 = system: NCI-H226
NCI-H23 = system: NCI-H23
NCI-H460 = system: NCI-H460
NCI-H522 = system: NCI-H522
OVCAR-3 = system: OVCAR-3
OVCAR-4 = system: OVCAR-4
OVCAR-8 = system: OVCAR-8
SF-268 = system: SF-268
SF-295 = system: SF-295
SK-MEL-5 = system: SK-MEL-5
SN12C = system: SN12C
SNB-19 = system: SNB-19
SNB-75 = system: SNB-75
SNB-78 = system: SNB-78
U-251 = system: U-251
UACC-257 = system: UACC-257
UACC-62 = system: UACC-62
UO-31 = system: UO-31
SF-539 = system: SF-539

With CCOC(=O)CNC(=O)C(CSC(=O)N(C)O)NC(=O)CCC(N)C(=O)O (stereo not given) the GI50 (ACHN) was 653 µM (inactive), the GI50 (CCRF-CEM) was 1.02 µM (active) and the GI50 (COLO 205) was 0.735 µM (active). The GI50 (DLD-1) was 0.656 µM (active), the GI50 (DMS-114) was 0.968 µM (active) and the GI50 (DMS-273) was 0.75 µM (active). The GI50 (HCT-116) was 1.75 µM (inactive), the GI50 (HCT-15) was over 1000 µM and the GI50 (HL-60) was 659 µM (inactive). The GI50 (HOP-18) was 462 µM (inactive), the GI50 (HOP-92) was 348 µM (inactive) and the GI50 (HT-29) was 0.891 µM (active). The GI50 (LOX IMVI) was 0.658 µM (active), the GI50 (OVCAR-5) was 436 µM (inactive) and the GI50 (RPMI-8226) was 908 µM (inactive). For the same molecule, the GI50 (RXF 393) was 498 µM (inactive), the GI50 (SK-MEL-28) was 927 µM (inactive) and the GI50 (SK-MEL-2) was 378 µM (inactive). For the same molecule, the GI50 (SK-OV-3) was 684 µM (inactive), the GI50 (SR) was 0.644 µM (active) and the GI50 (SW-620) was > 1000 µM (inactive). The GI50 (TK-10) was 655 µM (inactive).

With NC(=O)CCC(NCc1c2ccccc2[n+]([O-])c2ccccc12)C(=O)O (stereo not given) the GI50 (786-0) was 70.8 µM (inactive), the GI50 (A498) was > 100 µM (inactive) and the GI50 (A549) was > 100 µM (inactive). For the same molecule, the GI50 (ACHN) was 78 µM (inactive), the GI50 (CAKI-1) was 82.8 µM (inactive) and the GI50 (CCRF-CEM) was 35.6 µM (inactive). For the same molecule, the GI50 (COLO 205) was > 100 µM (inactive), the GI50 (DLD-1) was 46.9 µM (inactive) and the GI50 (DMS-114) was 41.9 µM (inactive). For the same molecule, the GI50 (DMS-273) was 56.8 µM (inactive), the GI50 (EKVX) was > 100 µM (inactive) and the GI50 (HCC 2998) was > 100 µM (inactive). The GI50 (HCT-116) was 30.8 µM (inactive), the GI50 (HCT-15) was 34.5 µM and the GI50 (HL-60) was 29.3 µM (inactive). The GI50 (HOP-18) was 33.5 µM (inactive), the GI50 (HOP-62) was > 100 µM (inactive) and the GI50 (HT-29) was > 100 µM (inactive). For the same molecule, the GI50 (IGROV-1) was > 100 µM (inactive), the GI50 (K562) was 36.3 µM (inactive) and the GI50 (KM-20L2) was 52.6 µM (inactive). The GI50 (KM12) was 65.9 µM (inactive), the GI50 (LOX IMVI) was 39.1 µM (inactive) and the GI50 (LXFL 529) was 45.1 µM (inactive). The GI50 (M14) was > 100 µM (inactive), the GI50 (M19-MEL) was 95.5 µM (inactive) and the GI50 (MOLT-4) was 30 µM (inactive). For the same molecule, the GI50 (Malme-3M) was 81.8 µM (inactive), the GI50 (NCI-H226) was 60.1 µM (inactive) and the GI50 (NCI-H23) was 63 µM (inactive). For the same molecule, the GI50 (NCI-H460) was > 100 µM (inactive), the GI50 (NCI-H522) was 70 µM (inactive) and the GI50 (OVCAR-3) was > 100 µM (inactive). The GI50 (OVCAR-4) was 40.1 µM (inactive), the GI50 (OVCAR-5) was > 100 µM (inactive) and the GI50 (OVCAR-8) was > 100 µM (inactive). The GI50 (RPMI-8226) was 36.1 µM (inactive), the GI50 (SF-268) was 59.2 µM (inactive) and the GI50 (SF-295) was > 100 µM (inactive). The GI50 (SK-MEL-28) was > 100 µM (inactive), the GI50 (SK-MEL-2) was 95.9 µM (inactive) and the GI50 (SK-MEL-5) was 68.7 µM (inactive). The GI50 (SK-OV-3) was > 100 µM (inactive), the GI50 (SN12C) was > 100 µM (inactive) and the GI50 (SNB-19) was > 100 µM (inactive). For the same molecule, the GI50 (SNB-75) was 49.7 µM (inactive), the GI50 (SNB-78) was > 100 µM (inactive) and the GI50 (SW-620) was 52.5 µM (inactive). The GI50 (TK-10) was > 100 µM (inactive), the GI50 (U-251) was > 100 µM (inactive) and the GI50 (UACC-257) was > 100 µM (inactive). For the same molecule, the GI50 (UACC-62) was 90.8 µM (inactive) and the GI50 (UO-31) was 59 µM (inactive).

For Cc1c2cc[n+](C)cc2c(C)c2c1[nH]c1ccc(OC(C)C)cc12, the GI50 (A498) was 12 µM (inactive), the GI50 (A549) was 3.44 µM (inactive) and the GI50 (ACHN) was 16.1 µM (inactive). The GI50 (COLO 205) was 1.39 µM (inactive), the GI50 (DMS-273) was 2.69 µM (inactive) and the GI50 (EKVX) was 5.06 µM (inactive). The GI50 (HCT-116) was 3.77 µM (inactive), the GI50 (HCT-15) was over 58.2 µM and the GI50 (HL-60) was 2.43 µM (inactive). The GI50 (HOP-18) was 3.75 µM (inactive), the GI50 (HOP-92) was 3.01 µM (inactive) and the GI50 (HT-29) was 4.25 µM (inactive). The GI50 (IGROV-1) was 2.55 µM (inactive), the GI50 (KM-20L2) was 4.72 µM (inactive) and the GI50 (KM12) was 2.75 µM (inactive). For the same molecule, the GI50 (LOX IMVI) was 6.95 µM (inactive), the GI50 (LXFL 529) was 0.875 µM (active) and the GI50 (M14) was 10.4 µM (inactive). For the same molecule, the GI50 (M19-MEL) was 2.09 µM (inactive), the GI50 (MOLT-4) was 5.18 µM (inactive) and the GI50 (Malme-3M) was 1.97 µM (inactive). The GI50 (NCI-H23) was 2.51 µM (inactive), the GI50 (NCI-H460) was 2.6 µM (inactive) and the GI50 (NCI-H522) was 1.98 µM (inactive). For the same molecule, the GI50 (OVCAR-3) was 3.1 µM (inactive), the GI50 (OVCAR-4) was 3.85 µM (inactive) and the GI50 (OVCAR-5) was 12.9 µM (inactive). For the same molecule, the GI50 (RPMI-8226) was 7.74 µM (inactive), the GI50 (SF-268) was 0.418 µM (active) and the GI50 (SF-539) was 1.01 µM (active). For the same molecule, the GI50 (SK-MEL-28) was 4.42 µM (inactive), the GI50 (SK-MEL-2) was 2.56 µM (inactive) and the GI50 (SK-MEL-5) was 1.48 µM (inactive). For the same molecule, the GI50 (SN12C) was 0.542 µM (active), the GI50 (SNB-75) was 0.384 µM (active) and the GI50 (SW-620) was 3.12 µM (inactive). The GI50 (TK-10) was 39.3 µM (inactive), the GI50 (UACC-257) was 2.82 µM (inactive) and the GI50 (UACC-62) was 2.71 µM (inactive). The GI50 (UO-31) was 27.3 µM (inactive).
